# Results reported in patent US4622217A, “I-4-amino-3-iodobenzylguanidine as imaging and therapeutic agent” (The Regents of the University of Michigan, priority 1984, dated 1986).
# Experiments:
# [1] = system: adrenergic nerves of the heart; experiment: Selectivity for the adrenergic nerves of the heart; conditions: in vivo
# adrenergic tissues = experiment: Accumulation in adrenergic tissues; format: in vivo; conditions: localizes in adrenergic neurons of the heart and chromaffin granules of the adrenal medulla
# [2] = Biological tissue distribution in dogs after intravenous injection; format: in vivo, dog (Female Mongrel); conditions: i.v. 100 μCi
# Procedure: (§1) Biological tissue distribution studies were performed in rats, dogs, and monkeys injected intravenously with 25 μCi, 100 μCi and 100 μCi, respectively, of I-125 4-amino-3-iodobenzylguanidine in an average volume of 0.2 ml, 2 ml, and 1 ml, respectively. Representative samples of tissues were counted in an autogamma counter with corrections made for radioactive decay, background, and counter efficiency. To normalize for differences in animal weights, tissue concentrations are expressed as percent kilogram dose per gram.
# [3] = Biological tissue distribution in monkeys after intravenous injection; format: in vivo, monkey; conditions: 3 hours, i.v. 100 μCi
# Procedure: as §1
# [4] = Biological tissue distribution in rats after intravenous injection; format: in vivo, rat (Female Sprague-Dawley); conditions: 90 min, i.v. 25 μCi
# Procedure: as §1
# [5] = Radio-decomposition on storage in buffer; format: physicochemical; conditions: up to 14 days, pH 4.8 sodium acetate buffer (0.005M), 1% (v/v) benzyl alcohol, 4° C., dark
smiles,measurement,setting,value
"N=C(N)NCc1ccc(N)c(I)c1 [radioiodinated compound, radioiodinated 4-amino-3-iodobenzylguanidine]",selectivity for the adrenergic nerves of the heart,[1],high degree of selectivity for the adrenergic nerves of the heart
N=C(N)NCc1ccc(N)c(I)c1 [4-amino-3-iodobenzylguanidine],accumulation in adrenergic tissues,adrenergic tissues,accumulated in adrenergic tissues in a manner similar to norepinephrine and guanethidine
N=C(N)NCc1ccc(N)c([125I])c1 [I-125 4-amino-3-iodobenzylguanidine],tissue concentration (Mean + S.E.M.),"[2]; 30 min, Adrenal Cortex",0.62 ± 0.16 % kg dose/g
same,tissue concentration (Mean + S.E.M.),"[2]; 30 min, Adrenal Medulla",8.8 ± 2.8 % kg dose/g
same,tissue concentration (Mean + S.E.M.),"[2]; 30 min, Blood",0.03 % kg dose/g
same,tissue concentration (Mean + S.E.M.),"[2]; 30 min, Heart (Left Ventricle)",0.49 ± 0.05 % kg dose/g
same,tissue concentration (Mean + S.E.M.),"[2]; 30 min, Liver",0.36 ± 0.02 % kg dose/g
same,tissue concentration (Mean + S.E.M.),"[2]; 30 min, Lung",0.88 ± 0.61 % kg dose/g
same,tissue concentration (Mean + S.E.M.),"[2]; 30 min, Muscle",0.05 ± 0.02 % kg dose/g
same,tissue concentration (Mean + S.E.M.),"[2]; 30 min, Thyroid",1.02 ± 0.06 % kg dose/g
same,tissue concentration (Mean + S.E.M.),"[2]; 2 hours, Adrenal Cortex",0.51 ± 0.15 % kg dose/g
same,tissue concentration (Mean + S.E.M.),"[2]; 2 hours, Adrenal Medulla",10.4 ± 0.8 % kg dose/g
same,tissue concentration (Mean + S.E.M.),"[2]; 2 hours, Blood",0.03 % kg dose/g
same,tissue concentration (Mean + S.E.M.),"[2]; 2 hours, Heart (Left Ventricle)",0.52 ± 0.02 % kg dose/g
same,tissue concentration (Mean + S.E.M.),"[2]; 2 hours, Liver",0.2 ± 0.02 % kg dose/g
same,tissue concentration (Mean + S.E.M.),"[2]; 2 hours, Lung",1.26 ± 0.2 % kg dose/g
same,tissue concentration (Mean + S.E.M.),"[2]; 2 hours, Muscle",0.04 ± 0.01 % kg dose/g
same,tissue concentration (Mean + S.E.M.),"[2]; 2 hours, Thyroid",0.85 ± 0.11 % kg dose/g
same,tissue concentration (Mean + S.E.M.),"[2]; 72 hours, Adrenal Cortex",0.13 ± 0.06 % kg dose/g
same,tissue concentration (Mean + S.E.M.),"[2]; 72 hours, Adrenal Medulla",18.3 ± 1.8 % kg dose/g
same,tissue concentration (Mean + S.E.M.),"[2]; 72 hours, Blood",0.02 % kg dose/g
same,tissue concentration (Mean + S.E.M.),"[2]; 72 hours, Heart (Left Ventricle)",0.06 ± 0.01 % kg dose/g
same,tissue concentration (Mean + S.E.M.),"[2]; 72 hours, Liver",0.05 % kg dose/g
same,tissue concentration (Mean + S.E.M.),"[2]; 72 hours, Lung",0.09 ± 0.01 % kg dose/g
same,tissue concentration (Mean + S.E.M.),"[2]; 72 hours, Muscle",0.01 % kg dose/g
same,tissue concentration (Mean + S.E.M.),"[2]; 72 hours, Thyroid",14.6 ± 2.4 % kg dose/g
same,tissue concentration (Mean + S.E.M.),[3]; Adrenal Cortex,0.60 ± .04 % Kg Dose/g
same,tissue concentration (Mean + S.E.M.),[3]; Adrenal Modullae,1.98 ± .14 % Kg Dose/g
same,tissue concentration (Mean + S.E.M.),[3]; Blood,0.03 ± .01 % Kg Dose/g
same,tissue concentration (Mean + S.E.M.),[3]; Heart (Left Ventricle),0.85 ± .11 % Kg Dose/g
same,tissue concentration (Mean + S.E.M.),[3]; Liver,0.17 ± .04 % Kg Dose/g
same,tissue concentration (Mean + S.E.M.),[3]; Lung,0.99 ± .53 % Kg Dose/g
same,tissue concentration (Mean + S.E.M.),[3]; Muscle,0.03 ± .55 % Kg Dose/g
same,tissue concentration (Mean + S.E.M.),[3]; Thyroid,1.07 ± .55 % Kg Dose/g
same,tissue concentration (Mean + S.E.M.),[4]; Blood,0.08 ± .01 % Kg Dose/g
same,tissue concentration (Mean + S.E.M.),[4]; Left Atrium,0.55 ± .06 % Kg Dose/g
same,tissue concentration (Mean + S.E.M.),[4]; Left Ventricle,0.46 ± .05 % Kg Dose/g
same,tissue concentration (Mean + S.E.M.),[4]; Liver,0.09 ± .01 % Kg Dose/g
same,tissue concentration (Mean + S.E.M.),[4]; Right Atrium,0.66 ± .05 % Kg Dose/g
same,tissue concentration (Mean + S.E.M.),[4]; Right Ventricle,0.70 ± .02 % Kg Dose/g
same,tissue concentration (Mean + S.E.M.),[4]; Spleen,0.35 ± .01 % Kg Dose/g
"N=C(N)NCc1ccc(N)c([131I])c1 [I-131-labeled compound, ^131 I-4-Amino-3-Iodobenzylguanidine]",degraded at 336 h,[5],< 4%
